Where two headings read alike, the source gives them in different places.
Key:
[1] = system: HTB-54; experiment: cells; format: cell-based; settings: Homo sapiens; for CC50: read-out: LC50 HTB54; for GI50: read-out: GI50 HTB54; for IC (TGI): read-out: TGI HTB54
Protocol: (§1) Cell lines were provided by the European Collection of Cell Cultures (ECACC) or by the American Type Culture Collection (ATCC). Seven cell lines were used: MCF-7 (breast adenocarnicoma), 184B5 (nonmalignant, mammary gland derived), CCRF-CEM (lymphoblastic leukemia), HT-29 (colon carcinoma), HTB-54 (lung carcinoma), BEAS-2B (nonmalignant, derived from the bronchial epithelium) and PC-3 (prostate carcinoma). MCF-7, CCRF-CEM, HT-29, HTB-54, BEAS-2B and PC-3 cell lines were grown in RPMI medium (Gibco) supplemented with 10% fetal bovine serum (FBS; Gibco), 100 units/mL penicillin and […] streptomycin (Gibco). 184B5 cells were grown in DMEM/F12 medium supplemented with 5% FBS, 1 × ITS (Lonza), 100 nM hydrocortisone (Aldich), 2 mM sodium pyruvate (Lonza), 20 ng/mL EGF (Sigma-Aldrich), 0.3 nM trans-retinoic acid (Sigma-Aldrich), 100 units/mL penicillin and […] streptomycin. Cells were maintained at 37 °C and 5% CO2.
(§2) The cytotoxic effect of each substance was tested by the MTT method. Each compound was initially dissolved in DMSO at a concentration of 0.01 M, and serial dilutions were prepared with nonsupplemented medium. The cytotoxic effect of each compound was tested at 50 and 10 µM as a first screening. […]
(§3) A total of 1 × 10^4 cells/well in 96-well plates were treated with increasing concentrations of the corresponding compounds for 48 h at 37 °C in a humidified atmosphere containing 5% CO2. Then, cells were incubated with 50 µL of MTT (2 mg/mL stock) for 4 h. The medium was then removed by aspiration, and the formazan crystals were dissolved in […] of DMSO. […] Data were obtained from at least 3 independent experiments performed in quadruplicate. The standard error of the means (SEM) for the cytotoxic parameters was calculated applying the standard deviation formula to the mean values of each parameter for the three independent experiments performed.
(§4) . Cisplatin was used as a standard drug. […]. […] The presence of electron-withdrawing groups (-NO2, -CF3, -Cl) in the phenyl ring favored the cytotoxic activity in the amides, but in the phosphoramidates, the best results were obtained for aliphatic chains methoxy (II.1b, II.2b) and ethoxy (II.1d, II.2d). […].

[2] = system: PC-3; experiment: cells; format: cell-based; settings: Homo sapiens; for LC50: read-out: LC50 PC-3; for GI50: read-out: GI50 PC-3; for IC (TGI): read-out: TGI PC-3
Protocol: as §1, §2, §3, §4

[3] = MTT cytotoxicity in nonmalignant mammary gland derived cells; format: cell-based; settings: human; for CC50: nonmalignant cells, 48 h, read-out: LC50 184B5
Protocol: as §1, §2, §3, §4
(§5) The lack of selectivity toward cancerous cells is one of the major issues during the discovery and development of new anticancer agents. Therefore, we evaluated the cytotoxic activity of our compounds against two cell lines derived from nonmalignant breast tissue (184B5) and no malignant bronchial epithelium (BEAS-2B) (Table 2). […].

[4] = system: 184B5; experiment: as above; format: cell-based; settings: for GI50 / IC (TGI): Homo sapiens, 184B5, nonmalignant cells, 48 h; for GI50: read-out: GI50 184B5; for IC (TGI): read-out: TGI 184B5; for Selectivity index (SI) = GI50 (184B5)/GI50 (MCF-7): breast
Protocol: as §1, §2, §3, §4, §5

[5] = MTT cytotoxicity in nonmalignant bronchial epithelium cells; format: cell-based; settings: human; for LC50 (50% lethal concentration): nonmalignant cells, 48 h, read-out: LC50 BEAS-2B
Protocol: as §1, §2, §3, §4, §5

[6] = system: BEAS-2B; experiment: as above; format: cell-based; settings: for GI50 / IC (TGI): Homo sapiens, BEAS-2B, nonmalignant cells, 48 h; for GI50: read-out: GI50 BEAS-2B; for IC (TGI): read-out: TGI BEAS-2B; for Selectivity index (SI) = GI50 (BEAS-2B)/GI50 (HTB-54): lung
Protocol: as §1, §2, §3, §4, §5

[7] = system: MCF-7; settings: read-out: GI50 MCF-7; 48 h, average ± SEM
[8] = system: MCF-7; experiment: cells; settings: Homo sapiens, MCF7, 48 h; for activity at 10 µM: read-out: Cell growth (%) MCF-7; for GI50: read-out: GI50 MCF-7, 48 h, average ± SEM; for CC50: read-out: LC50 MCF-7; for IC (TGI): read-out: TGI MCF-7
[9] = system: CCRF-CEM; experiment: cells; settings: Homo sapiens, 48 h; for activity at 10 µM: read-out: Cell growth (%) CCRF-CEM; for GI50: read-out: GI50 CCRF-CEM; for CC50: read-out: LC50 CCRF-CEM; for IC (TGI): read-out: TGI CCRF-CEM
[10] = system: HT-29; experiment: cells; settings: Homo sapiens, HT-29, 48 h; for activity at 10 µM: read-out: Cell growth (%) HT-29; for GI50: read-out: GI50 HT-29; for CC50: read-out: LC50 HT-29; for IC (TGI): read-out: TGI HT-29
[11] = DPPH radical scavenging assay; settings: for DPPH activity inhibition: after 30 min
Protocol: The DPPH (1,1-diphenyl-2-picrylhydrazyl radical) assay measures the hydrogen donation ability of the antioxidant to convert the stable DPPH free radical into 1,1-diphenyl-2-(2,4,6-trinitrophenyl)-hydrazine. After radical reaction with the compounds, a decrease in the absorbance was detected at 517 nm, which is accompanied by a change of color from violet to light-yellow. The target compounds were dissolved in methanol to make 1 mg/mL stock solutions, which were diluted to five concentrations as test samples. Ascorbic acid was used as a standard, and the experiment was carried out on 96-well plates. The DPPH solution was prepared at a 100 µM concentration. For each test, 100 µL of DPPH solution was added to 100 µL of methanolic solution containing the tested derivatives, and the absorbance was determined at different time points. All the measurements were carried out in triplicate. Results were expressed as the percentage of the radical scavenged, calculated using the following formula:(1) % DPPH radical scavenging=Acontrol − Asample/Acontrol × 100 where Acontrol refers to the absorbance of the negative control, and Asample refers to the absorbance of the tested compounds. Results are expressed as a percentage of DPPH radical scavenged ± SEM.
. Ascorbic acid and Trolox were used as radical scavenger gold standards. […]. No correlation was found for either structure–radical scavenging activity or antitumor–radical scavenging activity, except for compound I.2f, one of the selected cytotoxic agents. To further confirm this antioxidant activity, three compounds (I.1e, I.1g and I.2i) were also evaluated as DPPH radical scavengers at a lower concentration of 0.003 mg/mL (Figure 3B).

Row | Structure (SMILES) | GI50 ([1]; HTB-54, 48 h, average ± SEM) [µM] | IC (TGI) ([1]; HTB-54, 48 h, average ± SEM) [µM] | GI50 ([2]; PC-3, 48 h, average ± SEM) [µM] | IC (TGI) ([2]; PC-3, 48 h, average ± SEM) [µM] | GI50 [4] [µM] | IC (TGI) [4] [µM] | GI50 [6] [µM] | IC (TGI) [6] [µM] | activity at 10 µM [8] [%] | GI50 [8] [µM] | CC50 [8] [µM] | IC (TGI) [8] [µM] | activity at 10 µM [9] [%] | GI50 [9] [µM] | CC50 [9] [µM] | IC (TGI) [9] [µM] | activity at 10 µM [10] [%] | GI50 [10] [µM] | CC50 [10] [µM] | IC (TGI) [10] [µM] | further results
1 | N#C[Se]c1ccc(NC(=O)c2ccc([N+](=O)[O-])cc2)cc1 [I.2e] | > 100 | > 100 | > 100 | > 100 | 7.13 | > 100 | > 100 | > 100 | 33.4 | < 1 | > 100 | 54.4 ± 2.7 | 50.3 | 31.6 ± 0.4 | > 100 | > 100 | 35.9 | 0.8 ± 0.1 | > 100 | 58.2 ± 6.4 | CC50 ([1]; HTB-54, 48 h): > 100 µM; LC50 ([2]; PC-3, 48 h): > 100 µM; LC50 (50% lethal concentration) at 48 h [3]: > 100 µM; LC50 (50% lethal concentration) at 48 h [5]: > 100 µM; GI50 [7]: 0.6 ± 0.1 µM
2 | N#C[Se]c1ccc(NC(=O)c2cccs2)cc1 [I.2i] |  |  |  |  |  |  |  |  | 74.5 |  |  |  | 43.6 |  |  |  | 85.3 |  |  |  | DPPH radical scavenging activity ([11]; 0.003 mg/mL): some moderate effect was observed; DPPH radical scavenging activity ([11]; 0.03 mg/mL, 0-120 min): the most active radical scavenger; DPPH activity inhibition ([11]; 0.03 mg/mL): greater than 35%
3 | N#C[Se]c1ccc(NC(=O)c2ccno2)cc1 [I.2j] |  |  |  |  |  |  |  |  | 91 |  |  |  | 48.4 |  |  |  | 90.8 |  |  |  | DPPH activity inhibition ([11]; 0.03 mg/mL): greater than 35%
4 | COP(=O)(Nc1ccc([Se][Se]c2ccc(NP(=O)(OC)OC)cc2)cc1)OC [II.1b] | 7.2 ± 3.2 | 37.1 ± 3.2 | 17.1 ± 1.7 | 46.9 ± 2.3 | 5.75 | 7.2 | 6.48 | 41.3 | -13.9 | 4.3 ± 0.6 | 56.9 ± 5.4 | 8.8 ± 0.1 | -74.1 | 2 ± 0.1 | 8 ± 2.8 | 3.9 ± 0.4 | 70.7 | 20 ± 3.1 | 74.9 ± 0.6 | 47.4 ± 2 | CC50 ([1]; HTB-54, 48 h, average ± SEM): 76 ± 4.2 µM; LC50 ([2]; PC-3, 48 h, average ± SEM): 76.6 ± 2.5 µM; CC50 [3]: 8.65 µM; Selectivity index (SI) = GI50 (184B5)/GI50 (MCF-7) [4]: 1.36; LC50 (50% lethal concentration) [5]: > 100 µM; Selectivity index (SI) = GI50 (BEAS-2B)/GI50 (HTB-54) [6]: 0.84
5 | CCOP(=O)(Nc1ccc([Se][Se]c2ccc(NP(=O)(OCC)OCC)cc2)cc1)OCC [II.1d] | 5.9 ± 0.3 | 7.7 ± 0.2 | 6.4 ± 0.2 | 8.6 ± 0.2 | 5.45 | 7.01 | 5.43 | 6.98 | -57.5 | 2.3 ± 0.2 | 8.8 ± 0.8 | 4.2 ± 0.3 | -86.7 | 0.4 ± 0.2 | 3.4 ± 0.2 | 1.7 ± 0.2 | -69.8 | 1.7 ± 0.1 | 4.3 ± 0.1 | 3 ± 0.1 | CC50 ([1]; HTB-54, 48 h, average ± SEM): 9.4 ± 0.1 µM; LC50 ([2]; PC-3, 48 h, average ± SEM): 35.1 ± 4.9 µM; CC50 [3]: 8.58 µM; Selectivity index (SI) = GI50 (184B5)/GI50 (MCF-7) [4]: 2.38; LC50 (50% lethal concentration) [5]: 8.54 µM; Selectivity index (SI) = GI50 (BEAS-2B)/GI50 (HTB-54) [6]: 0.92

From article PMC8069832, “New Amides and Phosphoramidates Containing Selenium: Studies on Their Cytotoxicity and Antioxidant Activities in Breast Cancer” (Antioxidants, 2021)
